# Measured values: patent US9326996B2, “Use of xenon as neuroprotectant in a neonatal subject” (IMPERIAL INNOVATIONS LIMITED, priority 2004, dated 2016)
# Like-named read-outs stand apart in the source and are kept apart here.
# What was measured:
# [1] = test system: activated caspase-3 in hippocampus; assay: Hippocampal activated caspase-3 immunohistochemistry after anesthetic gas exposure
# Protocol: (§1) 7 day old Sprague-Dawley rat pups were placed in individual wells of a custom-built anesthetic chamber, and randomised to groups A-F to receive one of 6 gas combinations for 6 hours. Previous work has established that NMDA receptor antagonists have their maximal neurodegenerative affect 7 days after birth (Ikonomidou et al., 1999).
# (§2) Group B received 75% nitrous oxide and 25% oxygen as delivered by a calibrated anesthetic machine, whereas group C received 75% xenon along with 25% oxygen through a customised anesthetic machine modified for xenon delivery (Ohmeda, modified by Air Products, Surrey, UK). Group D were exposed to 25% oxygen along with 0.75% isoflurane. The remaining 2 groups were exposed to combinations of gases—namely 25% oxygen+75% nitrous oxide+0.75% isoflurane (group E) and 25% oxygen+60% xenon+15% nitrogen+0.75% isoflurane (group F). The high cost of xenon precludes its use in an open-circuit, consequently group C and group F received gases using a closed-circuit system, whereas gases for all other groups were delivered in a high-flow open-circuit.
# (§3) Rats destined for immunohistochemistry were sacrificed with 100 mg kg^−1 sodium pentobarbital IP immediately post-anesthesia, whereas those rats for DeOlmos silver staining were allowed to recover for 18 hrs before undergoing the same procedure. A thoracotomy was performed, and the aorta cannulated via a needle inserted into the apex of the heart. The pup was then perfused with 10 ml of 1% heparin solution, with the excess solution leaving through an incision in the right atrium. To fix the tissues, 20 ml of 4% paraformaldehyde in 0.1M phosphate buffer was injected by the same transcardial route. The whole brain was then removed and allowed to fix in paraformaldehyde perfusate and refrigerated at 4° C. 24 hours later, the brains were transferred to a solution of 30% sucrose with phosphate buffer and 1% sodium azide, and were kept refrigerated until the brains sank (approximately 48 hours).
# (§4) Once processed, a block was cut to safely include the area of interest—a coronal section −3.6 mm from the bregma (FIG. 1B). The blocks were then embedded and frozen into O.C.T. solution. The block was then cut coronally into approximately 120 slices, each 30 μm thick, with a cryostat (Bright Instrument Company Ltd., Huntingdon, UK). The cut sections were transferred to a 6 well plate containing phosphate buffered saline (PBS).
# A random well from each cut block, each containing around 20 representative slices of the total block, was transferred to a marked silk-bottomed well using a 3 ml Pasteur pipette. The sections were then washed in 5 ml of PBS for 5 min on a shaker set at 75 rpm. This washing procedure was repeated twice more, replacing the PBS each time. […]
# [2] = test system: activated caspase-3 in cortex; assay: Cortical activated caspase-3 immunohistochemistry after anesthetic gas exposure
# Protocol: as §1, §2, §3, §4
# A random well from each cut block, each containing around 20 representative slices of the total block, was transferred to a marked silk-bottomed well using a 3 ml Pasteur pipette. The sections were then washed in 5 ml of PBS for 5 min on a shaker set at 75 rpm. This washing procedure was repeated twice more, replacing the PBS each time. To quench the sections, they were incubated at room temperature on a shaker for 30 min in a solution comprising 35 ml methanol, 15 ml of PBS and 500 μl of stock 30% H2O2.
# The quenching solution was then removed, and the sections washed three times in PBS. Sections were blocked for 60 min at room temperature with 50 ml of PBST (PBS containing 0.5% Triton-X (Promega Corporation, Madison, Wis.)), and 1500 μl of normal goat serum (NGS) (Vector Laboratories Inc., Burlingame, Calif.). For incubation with the primary antibody, the sections were kept overnight at 4° C. on a shaker set at 50 rpm in a solution made up of […] rabbit anti-cleaved caspase-3 antibody (New England Biolabs, Hertfordshire, UK), 50 ml of PBST and 500 μl of NGS. […]
# [3] = test system: neuronal glial co-culture; assay: LDH release after preconditioning and oxygen glucose deprivation, neuronal glial co-culture; assay type: cell-based, mouse; settings: for LDH release following oxygen glucose deprivation: 2 h preconditioning
# Protocol: The pups were anaesthetised with isoflurane and then decapitated with the heads placed immediately into 4° C. HSG solution, an isotonic, high sucrose glucose solution made primarily from Hank's balanced salt solution (HBSS, GibroBRL) enhanced with NaHCO3 (0.04 M), sucrose (0.2 M) and D-Glucose (0.3 M) also containing antibiotic-anti-mycotic solution (AAS, GibroBRL). […] HSG solution.
# The brain tissue was then immersed in 0.25% trypsin and was placed in a shaking air chamber for 50 minutes at 37° C. filled with 5% CO2 and 95% room air. DNase was then added to the mixture and placed back into the shaking air chamber for a further 15 minutes. The mixture was then centrifuged at 1600 rpm for 10 minutes at 4° C. and the supernatant was carefully discarded. The cells were then resuspended and then plated at a density of 6.25×10^4 cells/cm^2 on 24-multiwell plates (Costar, Cambridge, Mass.) and cultured in a medium consisting of Eagle's minimum essential medium augmented with 20 mM glucose, 26 mM NaHCO3, 10% foetal bovine serum, 10% heat-inactivated horse serum, AAS (Gibco, Paisley, UK), 2 mM glutamine (Sigma, Poole, UK) and 10 ng/ml murine epidermal growth factor (EGF) (GibcoBRL). Glial cells reached confluence about one week after plating.
# Using a similar procedure cortical neuronal cells were obtained from fetal BALB/c mice at 14-16 days of gestation and plated at a density of 1.25×10^5 cells per cm^2 on the confluent monolayer of glial cells derived from the corresponding genetic strain. Neuronal cells reached confluence 10 days after plating.
# Sevoflurane was delivered using a vaporiser (Datex-Ohmeda).
# The amount of neuronal damage was assessed by the amount of LDH released into the culture medium, using a standardised colorimetric enzyme kit (Sigma, Poole, UK). This technique has been previously described (Wilhelm et al 2002). LDH assessment was performed 16 hours after oxygen glucose deprivation (FIG. 8).
# pure neuronal cultures = assay: FACS assessment of necrotic, viable and apoptotic cell populations after preconditioning and oxygen glucose deprivation
# Protocol: Neuronal cells were harvested from 19 day old embryonic mice by cesarean section for pregnant BALB/c mice. 6-9 mouse brains were removed from fetal mice and dissected to isolate whole cerebral neocortices devoid of the hippocampus, basal ganglia and meninges. Again throughout the micro dissection process, brain tissues were kept in 4° C. HSG solution. […] The cells were plated at a density of 1.2×10^5 cells, per cm^2 on 24-multiwell plates (Cater, Cambridge, Mass.) and the cultures were maintained at 37° C. in a humidified 5% CO2 environment. Neurobasal Media supplemented with B27, glutamine and AAS was used to resuspend the neuronal cells and as culture medium. For every 10 ml of Neurobasal Media, the following supplements were added: 200 μl B27, 100 μl antibiotic and 25 μl glutamine. Medium replacement for these cells was performed on day 2, 5 and 7 with pre-warmed 37° C. culture medium (Neurobasal Media, B27, Glutamine and AAS). On day 5 after neuronal plating, 100 μl/10 ml cytosine arabinoside (CA hydrochloride, Sigma) was added to the cell cultures to halt non-neuronal cell division. Neuronal cell cultures were ready to use on day 7.
# Cells were preconditioned using a purpose built 1.4 liter airtight, temperature controlled gas chambers. The chambers had inlet and outlet valves and an internal electric fan to ensure effective and continuous delivery of gases. Gas flow rate was 100 ml/min, and so chambers were flushed and allowed to equilibrate for 45 minutes before establishing a closed system. Cells were preconditioned for 2 hours inside the closed system with the appropriate gas concentrations using flow meters. Sevoflurane was delivered using a vaporiser (Datex-Ohmeda).
# To model ischaemic damage in the brain, neuronal cells were subjected to oxygen glucose deprivation. Twenty four hours after preconditioning cells, cultures were washed twice with HEPES buffer solution (120 mM NaCl, 5.4 mM KCL, 0.8 mM MgCl2, 15 mM glucose and 20 mM HEPES, titrated to pH 7.4 using 1M NaOH). […] The cells were exposed to this anoxic environment for 75 minutes. Oxygen glucose deprivation was terminated by removing the cultures from the gas chamber and changing the media; cultures destined for lactate dehydrogenase (LDH) assay were washed once and replaced with Eagle's minimal essential medium enhanced with 25 mM glucose and 38 mM NaHCO3, whereas pure neuronal cultures for FACS were washed once and replaced with Neurobasal Media supplemented with B27, glutamine and AAS.
# Twenty fours hours after oxygen glucose deprivation, cells were stained for FACS analysis. The culture medium was removed and washed twice with HEPES buffer solution. […] Cells were then washed twice with 1×BB, and then 0.8 μg/ml propidium iodide (Sigma-Aldrich, Poole, UK) in 1% fetal bovine serum (FBS) in phosphate buffer solution (PBS) was added and left to incubate on ice for 5 minutes. […] 800 μl 1% FBS in PBS was then added to stop the reaction, cells were removed and added to tubes for centrifugation at 1200 g for 10 minutes. The supernatant was discarded and the cells were re-suspended with 300 μl 1% FBS in PBS. Steps, if possible, were performed on ice to reduce the amount of neuronal death.
# A FACSCalibur (Becton Dickinson, Sunnyvale, Calif.) with a single argon laser was used for flow cytometric analysis. […] At least 10,000 cells per sample were analysed.
# [4] = in vivo; cited from earlier work
# [5] = Sprague-Dawley, rat, in vivo, 6 h
# [6] = 7 day old Sprague-Dawley rats, 6 h exposure with 25% oxygen, 75% N2O, 75% xenon, 0.75% isoflurane, 75% N2O+0.75% isoflurane, 60% xenon+0.75% isoflurane, air control 19.3±6.4
# [7] = 12.5% xenon, 0.67% sevoflurane or their combination as preconditioning, then oxygen glucose deprivation
compound,measurement,setting,value
"[N-]=[N+]=O [N2O, nitrous oxide]",number of caspase-3 positive cells in hippocampus (mean±SD),[1]; [5],3.7±1.4
same,number of caspase-3 positive cells in cortex (mean±SD),[2]; [5],22.5±5.9
FC(F)OC(Cl)C(F)(F)F (centres unmarked) [isoflurane],increase in the level of apoptosis in the hippocampus vs controls,[1]; [5],4 fold
same,number of caspase-3 positive cells in hippocampus (mean±SD),[1]; [5],22.1±9.6
same,increase in the level of apoptosis in the cortex vs controls,"[2]; 0.75% isoflurane or 75% N2O+0.75% isoflurane, neonatal rats",4 fold
same,number of caspase-3 positive cells in cortex (mean±SD),[2]; [6],76.5±11.4
FCOC(C(F)(F)F)C(F)(F)F [sevoflurane],concentration producing a significant reduction in LDH release,[3]; 2 h preconditioning followed by OGD,greater than 1.9%
same,LDH release following oxygen glucose deprivation,"[3]; sevoflurane at 0.67%, ineffective",97+/−5 % of controls
same,LDH release following oxygen glucose deprivation,[3]; sevoflurane at 1.3%,100+/−11 % of controls
same,LDH release following oxygen glucose deprivation,"[3]; sevoflurane at 2.7%, p<0.05",64+/−6 % of control
same,LDH release following oxygen glucose deprivation,"[3]; sevoflurane at 3.3%, p<0.001",37+/−5 % of controls
same,apoptotic cell population,pure neuronal cultures; [7],17+/−1%
same,viable cell population,pure neuronal cultures; [7],9%
same,necrotic cell population,"pure neuronal cultures; 12.5% xenon, 0.67% sevoflurane or their combination as preconditioning, then oxygen glucose deprivation, sham 70+/−2%, control 17+/−1%",81+/−2%
same,atmosphere sufficient to maintain anesthesia,[4],about 2.5%
same,"degenerating neurons, positive cells","[2]; 1.5% sevoflurane alone, control value 20.0±2, brain region not stated",42±2 positive cells
[Xe] [xenon],LDH release following oxygen glucose deprivation,"[3]; xenon at 12.5%, not significant",83+/−7 % of controls
same,LDH release following oxygen glucose deprivation,"[3]; xenon at 25%, not significant",70+/−11 % of controls
same,LDH release following oxygen glucose deprivation,"[3]; xenon at 50%, p<0.05",55+/−12 % of control values
same,LDH release following oxygen glucose deprivation,"[3]; xenon at 75%, p<0.05",49+/−12 % of control values
same,necrotic cell population,pure neuronal cultures,75+/−2%
same,apoptotic cell population,pure neuronal cultures; [7],9+/−1%
same,viable cell population,pure neuronal cultures; [7],9%
same,number of caspase-3 positive cells in hippocampus (mean±SD),"[1]; 7 day old Sprague-Dawley rats, 6 h exposure with 25% oxygen, 75% N2O, 75% xenon, 0.75% isoflurane, 75% N2O+0.75% isoflurane, 60% xenon+0.75% isoflurane, controls 5.2±1.8",5.0±3.2
same,atmosphere sufficient to induce or maintain anesthesia,[4],about 70%
same,number of caspase-3 positive cells in cortex (mean±SD),[2]; [6],19.7±9.6
